From ChEMBL document CHEMBL5030533, “Mechanistic Investigation of Site-specific DNA Methylating Agents Targeting Breast Cancer Cells” (J Med Chem, 2021)
pEC50, pIC50: −log10 of the molar value. Activity calls are given as the source filed them. No cut-off for these calls is given here.

Columns and labels:
[1] = molecular target: T1, Estrogen receptor (Homo sapiens) (UniProt P03372); test: Induction of ERalpha nuclear translocation in human MCF7 cells assessed as increase in SLFN5 mRNA expression at 0.1 to 5 nM after 24 hrs by RT-qPCR analysis; format: cell-based; conditions: dose 0.1-5 nM
T1 sequence (whole entry): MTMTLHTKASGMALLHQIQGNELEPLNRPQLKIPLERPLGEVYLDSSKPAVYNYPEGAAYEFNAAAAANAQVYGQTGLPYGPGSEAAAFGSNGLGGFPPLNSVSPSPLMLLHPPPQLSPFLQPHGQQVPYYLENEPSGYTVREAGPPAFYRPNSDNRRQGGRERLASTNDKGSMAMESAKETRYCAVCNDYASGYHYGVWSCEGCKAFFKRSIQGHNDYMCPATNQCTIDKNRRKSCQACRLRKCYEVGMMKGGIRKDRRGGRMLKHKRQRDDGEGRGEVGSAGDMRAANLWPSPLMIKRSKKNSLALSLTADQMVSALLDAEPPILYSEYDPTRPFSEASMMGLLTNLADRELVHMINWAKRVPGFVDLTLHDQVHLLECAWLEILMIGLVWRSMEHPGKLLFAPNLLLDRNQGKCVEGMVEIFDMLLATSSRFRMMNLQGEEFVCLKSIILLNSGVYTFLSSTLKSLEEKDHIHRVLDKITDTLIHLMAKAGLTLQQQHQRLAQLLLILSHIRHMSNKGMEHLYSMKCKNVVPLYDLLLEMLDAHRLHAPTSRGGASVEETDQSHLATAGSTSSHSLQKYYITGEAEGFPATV

[2] = molecular target: T1, Estrogen receptor (Homo sapiens); test: Induction of ERalpha nuclear translocation in human MCF7 cells assessed as increase in IGFBP4 mRNA expression at 0.1 to 5 nM after 24 hrs by RT-qPCR analysis; format: cell-based; conditions: dose 0.1-5 nM
[3] = molecular target: T1, Estrogen receptor (Homo sapiens); test: Induction of ERalpha nuclear translocation in human MCF7 cells assessed as increase in TFF1 mRNA expression at 0.1 to 5 nM after 24 hrs by RT-qPCR analysis; format: cell-based; conditions: dose 0.1-5 nM
[4] = molecular target: T1, Estrogen receptor (Homo sapiens); test: Induction of ERalpha nuclear translocation in human MCF7 cells assessed as increase in AGR2 mRNA expression at 0.1 to 5 nM after 24 hrs by RT-qPCR analysis; format: cell-based; conditions: dose 0.1-5 nM
[5] = molecular target: T1, Estrogen receptor (Homo sapiens); test: Induction of ERalpha nuclear translocation in human MCF7 cells assessed as increase in RasGRP1 mRNA expression at 0.1 to 5 nM after 24 hrs by RT-qPCR analysis; format: cell-based; conditions: dose 0.1-5 nM
[6] = molecular target: T1, Estrogen receptor (Homo sapiens); test: Induction of ERalpha nuclear translocation in human MCF7 cells assessed as increase in RGNEF mRNA expression at 0.1 to 5 nM after 24 hrs by RT-qPCR analysis; format: cell-based; conditions: dose 0.1-5 nM
[7] = tested on: MCF7; test: Cytotoxicity against human MCF7 cells measured after 16 hrs by MTT assay; format: functional, cell-based; conditions: MCF7, 16 h
[8] = molecular target: T1, Estrogen receptor (Homo sapiens); test: Induction of ERalpha nuclear translocation in human MCF7 cells assessed as increase in LRP2 mRNA expression at 0.1 to 5 nM after 24 hrs by RT-qPCR analysis; format: cell-based; conditions: dose 0.1-5 nM
[9] = tested on: Calf thymus DNA; test: Displacement of ethidium bromide from calf thymus DNA assessed as relative binding by measuring molar equivalents by spectrofluorometric assay; format: nucleic-acid assay; conditions: Bos taurus
[10] = molecular target: T1, Estrogen receptor (Homo sapiens); test: Induction of ERalpha nuclear translocation in human MCF7 cells at 15 nM after 5 hrs by immunofluorescence assay; format: cell-based
[11] = tested on: Calf thymus DNA; test: Binding affinity to calf thymus DNA assessed as 3-MeA adduct formation at 100 uM after 24 hrs by RP-HPLC analysis; format: nucleic-acid assay; conditions: Bos taurus
[12] = tested on: Calf thymus DNA; test: Binding affinity to calf thymus DNA assessed as 3-MeA adduct formation at 100 uM for 24 hrs in presence of netropsin by RP-HPLC analysis; format: nucleic-acid assay; conditions: Bos taurus
[13] = tested on: Calf thymus DNA; test: Binding affinity to calf thymus DNA assessed as 3-MeA adduct formation at 50 uM after 24 hrs by RP-HPLC analysis relative to control; format: nucleic-acid assay; conditions: Bos taurus
[14] = tested on: Calf thymus DNA; test: Binding affinity to calf thymus DNA assessed as 7-MeG adduct formation at 50 uM after 24 hrs by RP-HPLC analysis; format: nucleic-acid assay; conditions: Bos taurus
[15] = tested on: Calf thymus DNA; test: Binding affinity to calf thymus DNA assessed as 3-MeA adduct formation at 25 uM after 24 hrs by RP-HPLC analysis relative to control; format: nucleic-acid assay; conditions: Bos taurus
[16] = tested on: Calf thymus DNA; test: Binding affinity to calf thymus DNA assessed as 7-MeG adduct formation at 100 uM after 24 hrs in presence of netropsin by RP-HPLC analysis; format: nucleic-acid assay; conditions: Bos taurus
[17] = tested on: Calf thymus DNA; test: Binding affinity to calf thymus DNA assessed as 7-MeG adduct formation at 100 uM after 24 hrs by RP-HPLC analysis; format: nucleic-acid assay; conditions: Bos taurus
[18] = tested on: Calf thymus DNA; test: Binding affinity to calf thymus DNA assessed as 3-MeA adduct formation at 50 uM after 24 hrs by RP-HPLC analysis; format: nucleic-acid assay; conditions: Bos taurus
[19] = tested on: Calf thymus DNA; test: Binding affinity to calf thymus DNA assessed as 3-MeA adduct formation at 100 uM after 24 hrs by RP-HPLC analysis relative to control; format: nucleic-acid assay; conditions: Bos taurus
[20] = tested on: Calf thymus DNA; test: Binding affinity to calf thymus DNA assessed as 7-MeG adduct formation at 25 uM after 24 hrs by RP-HPLC analysis; format: nucleic-acid assay; conditions: Bos taurus
[21] = tested on: Calf thymus DNA; test: Binding affinity to calf thymus DNA assessed as 3-MeA adduct formation at 100 uM after 24 hrs in presence of netropsin by RP-HPLC analysis relative to control; format: nucleic-acid assay; conditions: Bos taurus
[22] = tested on: Calf thymus DNA; test: Binding affinity to calf thymus DNA assessed as 3-MeA adduct formation at 25 uM after 24 hrs by RP-HPLC analysis; format: nucleic-acid assay; conditions: Bos taurus
[23] = tested on: MCF7; test: Cytotoxicity against ER positive human MCF7 cells at 100 uM incubated for 24 hrs in presence of estradiol by MTT assay; format: functional, cell-based
[24] = tested on: MCF7; test: Cytotoxicity against ER positive human MCF7 cells incubated for 24 hrs in presence of estradiol by MTT assay; format: functional, cell-based; conditions: MCF7, 24 h
[25] = tested on: MDA-MB-231; test: Cytotoxicity against ER negative human MDA-MB-231 cells incubated for 24 hrs in presence of estradiol by MTT assay; format: functional, cell-based; conditions: MDA-MB-231, 24 h
[26] = tested on: Calf thymus DNA; test: Binding affinity to calf thymus DNA assessed as 3-MeA adduct formation at 5000 uM after 24 hrs in presence of netropsin by RP-HPLC analysis; format: nucleic-acid assay; conditions: Bos taurus
[27] = tested on: Calf thymus DNA; test: Binding affinity to calf thymus DNA assessed as 3-MeA adduct formation at 5000 uM after 24 hrs by RP-HPLC analysis relative to control; format: nucleic-acid assay; conditions: Bos taurus
[28] = tested on: Calf thymus DNA; test: Binding affinity to calf thymus DNA assessed as 3-MeA adduct formation at 5000 uM after 24 hrs in presence of netropsin by RP-HPLC analysis relative to control; format: nucleic-acid assay; conditions: Bos taurus
[29] = tested on: Calf thymus DNA; test: Binding affinity to calf thymus DNA assessed as 3-MeA adduct formation at 5000 uM after 24 hrs by RP-HPLC analysis; format: nucleic-acid assay; conditions: Bos taurus
[30] = molecular target: T2, Estrogen receptor (Homo sapiens, UniProt P03372); test: Binding affinity of ERalpha LBD (unknown origin) incubated for 2 hrs by LanthaScreen TR-FRET assay
T2 sequence (P03372 whole entry): T1 sequence (whole entry)

| Structure (SMILES) | Activity [1] | Activity [2] | Activity [3] | Activity [4] | Activity [5] | Activity [6] | pEC50 [7] | Activity [8] | Activity [9] | Activity [12] | Activity [13] | Activity [14] | Activity [15] | Activity [16] | Activity [17] | Activity [18] | Activity [19] | Activity [20] | Activity [21] | Activity [22] | further results |
| --- | --- | --- | --- | --- | --- | --- | --- | --- | --- | --- | --- | --- | --- | --- | --- | --- | --- | --- | --- | --- | --- |
| Cn1cc(NC(=O)c2cc(NC(=O)CCS(C)(=O)=O)cn2C)cc1C(=O)NCCCC(=O)NCCCCCC[C@@H]1Cc2cc(O)ccc2[C@H]2CC[C@]3(C)[C@@H](O)CC[C@H]3[C@H]12 | Active | Active | Active | Active | Active | Active | 3.84 | Active | 4.43 Mequiv | – | – | – | – | – | – | – | – | – | – | – | – |
| COS(=O)(=O)CCC(=O)Nc1cc(C(=O)Nc2cc(C(=O)NCC(=O)NCCCCCC[C@@H]3Cc4cc(O)ccc4[C@H]4CC[C@]5(C)[C@@H](O)CC[C@H]5[C@H]34)n(C)c2)n(C)c1 | – | – | – | – | – | – | 3.85 | – | – | 180 µmol | 86% | 404 µmol | 89% | 482 µmol | 404 µmol | 1760 µmol | 83% | 194 µmol | 91% | 1620 µmol | Activity [10]: Active; Activity [11]: 1920 µmol |
| CCCNC(=O)c1cc(NC(=O)c2cc(NC(=O)CCS(=O)(=O)OC)cn2C)cn1C | – | – | – | – | – | – | 4.07 | – | – | – | 95% | 399 µmol | 96% | 714 µmol | 774 µmol | 8230 µmol | 95% | 185 µmol | 95% | 4600 µmol | Activity [23]: Active |
| COS(=O)(=O)CCC(=O)Nc1cc(C(=O)Nc2cc(C(=O)NCCC(=O)NCCCCCC[C@@H]3Cc4cc(O)ccc4[C@H]4CC[C@]5(C)[C@@H](O)CC[C@H]5[C@H]34)n(C)c2)n(C)c1 | – | – | – | – | – | – | 4.40 | – | – | 769 µmol | 98% | 253 µmol | 99% | 409 µmol | 495 µmol | – | 97% | 93 µmol | 95% | 6520 µmol | Activity [23]: inactive; pEC50 [24]: 4.29; pEC50 [25]: 3.80 |
| COS(C)(=O)=O | – | – | – | – | – | – | – | – | – | – | – | – | – | – | – | – | – | – | – | – | Activity [26]: 1240 µmol; Activity [27]: 9%; Activity [28]: 31%; Activity [29]: 1800 µmol |
| Cn1cc(NC(=O)c2cc(NC(=O)CCS(C)(=O)=O)cn2C)cc1C(=O)NCC(=O)NCCCCCC[C@@H]1Cc2cc(O)ccc2[C@H]2CC[C@]3(C)[C@@H](O)CC[C@H]3[C@H]12 | Active | Active | Active | Active | Active | Active | 3.91 | inactive | 4.35 Mequiv | – | – | – | – | – | – | – | – | – | – | – | pIC50 [30]: 9.00 |
| COS(=O)(=O)CCC(=O)Nc1cc(C(=O)Nc2cc(C(=O)NCCCC(=O)NCCCCCC[C@@H]3Cc4cc(O)ccc4[C@H]4CC[C@]5(C)[C@@H](O)CC[C@H]5[C@H]34)n(C)c2)n(C)c1 | – | – | – | – | – | – | 4.05 | – | – | 173 µmol | 82% | 204 µmol | 83% | 420 µmol | 318 µmol | 922 µmol | 79% | 147 µmol | 86% | 699 µmol | Activity [11]: 1210 µmol |
| Cn1cc(NC(=O)c2cc(NC(=O)CCS(C)(=O)=O)cn2C)cc1C(=O)NCCC(=O)NCCCCCC[C@@H]1Cc2cc(O)ccc2[C@H]2CC[C@]3(C)[C@@H](O)CC[C@H]3[C@H]12 | Active | Active | Active | Active | Active | Active | – | inactive | 2.54 Mequiv | – | – | – | – | – | – | – | – | – | – | – | pIC50 [30]: 8.83 |
